Reference: patent publication EP1276895B1, “METHOD FOR THE IDENTIFICATION OF ACTIVE SITE PROTEASE INACTIVATORS” (THE UNIVERSITY OF GEORGIA RESEARCH FOUNDATION, INC., priority 2000, dated 2001)
Residues, ends and D or L forms follow the SMILES beside them. *: point of attachment. AFC = O=c1cc(C(F)(F)F)c2ccc(N*)cc2o1; MeOSuc = COC(=O)CCC(=O)*; Cbz = O=C(OCc1ccccc1)*

Legend:
[1] = tested on: purified Taenia solium cysteine protease; assay: Competitor assay of low Vmax substrates (vehicles) against high Vmax substrate cocktails (Step III), purified protease; type: biochemical; conditions: purified protease; for inhibition with the final cocktail (7.4%): 7.4% cocktail = Z-FR-AFC + Z-FAR-AFC + Z-AAK-AFC + AP-AFC + Z-VLR-AFC, 1X10^-6 M each, vehicle 8X10^-6 M; for inhibition in the presence of the 1.4% cocktail: 1.4% cocktail = Z-FR-AFC 1X10^-6M
Description: (We employed "Vmax" here although Kcat could also be used). Due to the lower number of substrates, a percentage was not chosen for the "BOTTOM %" " substrates. Alternately, all substrates which were not cleaved as determined by a value of 10 uM/hr or less, were chosen to be tested in this step for competitive ability. From this point forth, the term "vehicle" will represent low Vmax substrates that were capable of inhibiting cleavage of the percent cocktails. In this instance, we tested for "vehicles" which inhibited cleavage of the TOP 1.4% cocktail (they were delivered into the active site). Based upon our results from Step II, the top 1.4% cocktail was composed of Z-Phe-Arg-AFC, the highest cleaved substrate.
(§1) The experiment began with a competitor test between the noncleaved low Vmax substrates and the highest Vmax substrate, Z-Phe-Arg-AFC. Concentrations were varied between the low Vmax substrate and Z-Phe-Arg-AFC, as described above under "refinement of assay" until a relative inhibition profile was obtained.
The mixture was allowed to equilibrate for a period of 30 minutes. Finally, active purified enzyme was added to the tubes at a concentration which was always 50 times less than the concentration of the high and low Vmax substrates, in order to insure saturation conditions. This concentration varied from purification to purification and the amount added depended upon the yield and specific activity of the purified protease.
Positive controls were set up similarly as described for test controls, except that solvent was added in substitution for the low Vmax substrate (in a volume equal to the low Vmax volume addition). All of the substrates could be dissolved in dimethylsulfoxide (DMSO), and therefore, this was the solvent of choice. Negative controls were set up by adding the low Vmax and the high Vmax substrate in a tube without the protease. All potential non-proteolytic induced liberation of AFC was therefore controlled for in this tube (a feature which also insured stability of the AFC substrates, since these substrates will freely liberate AFC when unstable). A tube set will be established for this negative control.
All controls were set up in triplicate, and experiments repeated a minimum of five times. The assays were incubated at 37°C, for 18 hours overnight.
(§2) Percent inhibition was calculated as: %Inhibition =; ((AFC positive for"Y"-AFC negative for"Y")-(AFC test-AFC negative for"Y")X100)/(AFC positive for "Y"-AFC negative for "Y") [formula]
A 2.9% cocktail of the high Vmax substrates was made. This was composed of Z-FR-AFC and the second most cleaved substrate, Z-FAR-AFC. The vehicles promoted from the initial screenings above were again tested for competitive inhibition ability with the new cocktails. Their concentrations were set identically to those which were "fixed" in the previous protocols. In other words, 8X10^-6M of the vehicle was added to the culture tube with 1X10^-6 M of Z-FR-AFC and 1X10^-6 M of Z-FAR-AFC. Active protease was added last at a concentration that was 50 times less than the concentration of the high Vmax substrate (to ensure saturating conditions).
In similar experimental fashion, a 4.4%, 5.9%, and 7.4% cocktail were tested with each of the promising vehicles. Each percentage point represented an increase by one substrate. Each of the individual components in the cocktail were added at 1X10^-6 M each, to 8X10^-6 M of the vehicle. The composition of the cocktails was as follows: 4.4% cocktail: Z-FR-AFC, Z-FAR-AFC, and Z-AAK-AFC (third highest cleaved substrate); 5.9% cocktail: Z-FR-AFC, Z-FAR-AFC, Z-AAK-AFC, and AP-AFC (fourth highest cleaved substrate); 7.4% cocktail: […], Z-FAR-AFC, Z-AAK-AFC, AP-AFC, and Z-VLR-AFC. We stopped at this number of substrates in the cocktail, since confidence was obtained that inhibitory potential of vehicles could be "diluted out."
Finally, a manageable set of candidate vehicles was determined. […]

Taenia solium crude mix = assay: Competitor assay of vehicles against high Vmax substrate cocktails (Step III), crude mix; type: biochemical
Description: Step III for a crude mix proceeds it would for a purified protease, except that Vm is used instead of kcat.
as §1, §2
One of the most intriguing findings in this experiment was that a highly similar inhibition pattern for the competitor assay was noted when the crude mix was employed as the source of the target protease. Although there were some variations in the effects of inhibitor dilution, the most highly ranked vehicles remained inhibitory consistently in comparison to the profile with the target protease. The relative profile and composition of the top tiers of vehicles was identical. Z-LLL-AFC, Z-LLY-AFC, Mu-LY-AFC, Boc-VPR-AFC, Z-SY-AFC, Z-RR-AFC, Z-FLF-AFC, Z-LGR-AFC consistently presented as the top eight vehicles (Fig. 5b), respectively, based upon their V values (Table 2). […] It was notable that the three vehicles had very similar V values. […] As was mentioned, this vehicle along with Z-LLL-AFC and Z-LLY-AFC, were consistently the most inhibitory vehicles. The V values of the most inhibitory vehicle series are shown below in Table 2. Again, a clear break between the first and second tier vehicles could be noted with the V value. Table 2. Vehicles and V value rankings.

[2] = tested on: purified Taenia solium cysteine protease; assay: Substrate cleavage screen of AFC-linked synthetic substrates (Step II), purified protease; type: biochemical; conditions: 1 ug purified protease, 1 ug substrate, Citrate pH 4.9 with 0.01 M cysteine, 18 h, 37 °C
Description: In this step, the most efficacious substrate for detection of the cysteine protease (high Kcat substrate) was determined in vitro along with those substrates which were not well cleaved (low kcat substrates). From this point forth, the following conditions refer to all assays: "assay buffer" refers to 0.4 M Citrate, pH 4.9 (the pH optima of the protease). Incubation time was 18 hours at 37°C. These conditions were determined by our preliminary data to be best for kinetic evaluation of the protease. […] The experiments were conducted in […] Borosilicate mini-culture tubes (Fisher Scientific), and a fluorometer (Turner) was employed for detection of AFC cleavage.
Approximately 1 ug (or a proteolytically detectable amount) of the purified target cysteine protease was incubated individually, with 1 ug of each of the available substrates in 500 uL of assay buffer. During this setup, the substrate was pre-incubated in the assay buffer for a short period of time (20 minutes) in order to reach an equilibrated status before the addition of the protease. Cleavage assessments were based upon the property of the protease to cleave synthetic peptide substrates linked at the C-terminus to 7-Amino-4-Trifluoromethyl Coumarin (AFC) as previously described. AFC linked tripeptides, dipeptides, and monopeptides, (with a variety of permutations at P3-P1) were available from Enzyme Systems Products (Livermore, CA), and were used as the source of the subset. Following incubation of enzyme preparations overnight (18 h, 37 °C) with peptide in assay buffer (Citrate, pH 4.9, supplemented with 0.01 M cysteine), free AFC concentrations were measured fluorometrically (excitation 405 nm, emission 505 nm). The proteolytic cleavage released the AFC group, which was measurable as a free molecule by a standard fluorometer and converted into molar quantities, based upon a previously established standard curve. The simplicity of AFC detection by the fluorometer was a key factor which quickened and simplified the procedures.
In the assay, 1 ug of the purified Taenia cysteine protease was added to a saturating amount of Z-Phe-Arg-AFC (4X10^-5 M) in assay buffer. The experiment was conducted in triplicate and repeated at least 5 times until we were certain that variability in AFC cleavage was not statistically significant.
Vmax was calculated for the cleavage of substrates by the purified target protease and Vmax was calculated for substrates cleaved by the crude mix protease using conventional kinetic modeling calculations already described in the art.

[3] = tested on: purified Taenia solium cysteine protease; assay: Inhibition assay of protease inactivators against the high Vmax cocktail, EC100 and Ki ranking (Step VII B); type: biochemical
Text: Once the protease inactivators were synthesized in the organic laboratory, they were to be tested for the lowest efficacious concentrations at which they induced 100% inhibition of the target protease (EC100). The top percent cocktail that was employed in the final vehicle selection step of Step III was employed as the source of competition for the inhibitors. In this case, this was the […] which was comprised of Z-FR-AFC, Z-FAR-AFC, Z-AP-AFC, Z-AAK-AFC, and Z-VLR-AFC. The final result would be a ranking of transition state candidate protease inactivators with a high ranking directly correlating to a low EC100 value. The following steps describe the assay:
Step A: Initial Screening. To set up the test control, each protease inactivator was first incubated with the […] (which provided the final differentiation of vehicles in Step III). To begin with, the protease inactivator was incubated at a concentration of 3 X 10^-9M in 500 ul of assay buffer ([…], pH 4.9 supplemented with 10mM L-cysteine). This concentration was determined, after a series of inhibitor dilutions identified, to be the best inhibitor concentration at which a differentiation in inhibitor potential could be noted. Next, a concentration equal to 4 X 10^-5M for each of the individual cocktail components, was added to the mix. The components were allowed to equilibrate for a period of 30 minutes. Finally, active purified enzyme was added to the tubes at a concentration which was always at least 50 times less than the concentration of the lowest concentration in the mix (to provide saturating conditions.) This concentration varied from purification to purification and the amount added depended upon the yield and specific activity of the purified protease.
Positive controls were set up similarly as described for test controls, except that solvent was added in substitution for the protease inactivator (in a volume equal to the […] volume addition). All of the protease inactivators could be dissolved in dimethylsulfoxide (DMSO), and therefore, this was the solvent of choice. Negative controls were set up by adding the protease inactivator and the cocktail substrates in a tube, without the protease. All potential non-proteolytic induced liberation of AFC was therefore controlled for in this tube (a feature which also insured stability of the AFC substrates, since these substrates will freely liberate AFC when unstable).
All controls were set up in triplicate, and experiments repeated a minimum of five times. The assays were incubated at 37°C, overnight. Percent inhibition was calculated as: % Inhibition = ((AFC positive for ʺSIʺ-AFC negative for ʺSIʺ)-(AFC test-AFC negative for ʺSIʺ))/(AFC positive for ʺSIʺ-AFC negative for ʺSIʺ) × 100 [formula]
Because of this, a dilution study was required in order to determine a viable ranking. Thus, the concentration of each of the protease inactivators was lowered with a dose response setup until the most efficacious concentration for 100% inhibition (EC100) could be determined. […] The final result of the assay was a ranked candidate list of protease inactivators. A lower EC100 was attributable to a higher ranking and vice-versa.
In order to determine Ki, all of the high Vmax cocktail substrates were employed for Ki determination (since Ki of the inhibitor for the enzyme is the same regardless of the substrate). To insure the highest accuracy, Ki was to be determined upon a minimum of at least three of the high Kcat substrates. Nonlinear fitting and the Dixon plot were both employed to determine Ki of the top ranked protease inactivators. A further plot was constructed using either Eadie Hofstee as well as Hanes to determine the mode of inhibition. These methods were used in order to determine the type of inhibition.

Taenia crassiceps cysts = assay: Short-term prophylactic protection of BALB/c mice from cysticercosis infection; type: in vivo; conditions: pre-injected two days, 10 T. crassiceps cysts/mouse, dosed daily for four weeks, cysts counted after one month, versus untreated controls

Q: With N=C(N)NCCC[C@H](NC(=O)OCc1ccccc1)C(=O)N[C@@H](CCCNC(=N)N)C(=O)Nc1ccc2c(C(F)(F)F)cc(=O)oc2c1 [Z-RR-AFC] (Cbz-Arg-Arg-{AFC}) as the compound, how does the “inhibition with the final cocktail (7.4%)” value [1] read?
A: The value was “less than 20%”.

Q: What about the “V Value” ([1]; V = P * M, P = inhibition with first (1.4%) cocktail, M = inhibition with last (7.4%) cocktail, vehicle 8X10^-6M, each cocktail substrate 1X10^-6 M) of the same compound?
A: The value was 0.09.

Q: And the Tier (Taenia solium crude mix)?
A: Its Tier is 2 (The second tier was composed of those vehicles, which produced inhibition between 20-50% inhibition when in the presence of the 1.4% cocktail).

Q: And the “V Value” (Taenia solium crude mix; V = P * M)?
A: Its value is 0.09.

Q: Which “cleavage of AFC-linked substrate (Vmax)” value [2] does the source give for CC(C)C[C@H](NC(=O)OCc1ccccc1)C(=O)NCC(=O)N[C@@H](CCCNC(=N)N)C(=O)Nc1ccc2c(C(F)(F)F)cc(=O)oc2c1 [Z-LGR-AFC, Z-Leu-Gly-Arg-AFC] (Cbz-Leu-Gly-Arg-{AFC}) here?
A: Its value is “noncleavable”.

Q: And the “inhibition in the presence of the 1.4% cocktail” value ([1]; vehicle 8X10^-6M)?
A: Its value is “greater than 20%”.

Q: And the “inhibition with the final cocktail (7.4%)” value [1]?
A: The value was “less than 20%”.

Q: With N[C@@H](CCC(=O)O)C(=O)N[C@@H](Cc1ccc(O)cc1)C(=O)Nc1ccc2c(C(F)(F)F)cc(=O)oc2c1 [EY-AFC, reference compound] (H-Glu-Tyr-{AFC}) as the compound, how does the “cleavage of AFC-linked substrate (Vmax)” value [2] read?
A: Its value is “not cleaved”.

Q: What does the source list for “Leu-Phe-Ketoamide-Pyridyl [K-Pyr, reference compound]”?
A: % Inhibition of T. solium CP in vitro ([3]; in vitro, concentration not stated in Table 4): 80%; % Prophylactic protection of BALB/c mice (Taenia crassiceps cysts): 40%

Q: With CC(C)C[C@@H](/C=C/S(C)(=O)=O)NC(=O)[C@H](CC(C)C)NC(=O)[C@H](CC(C)C)NC(=O)OCc1ccccc1 [Z-LLL-VS, Z-Leu-Leu-Leu-vinylsulfone] as the compound, how does the “ranking of protease inactivators by EC100” value ([3]; dilution study, nanomolar levels) read?
A: The value was “top inhibitors”.

Q: Which “inhibition in the presence of the 1.4% cocktail” value ([1]; vehicle 8X10^-6M) does the source give for CC(C)C[C@H](NC(=O)OCc1ccccc1)C(=O)N[C@@H](CCCNC(=N)N)C(=O)N[C@@H](CCCNC(=N)N)C(=O)Nc1ccc2c(C(F)(F)F)cc(=O)oc2c1 [Z-LRR-AFC] (Cbz-Leu-Arg-Arg-{AFC}) here?
A: Its value is “greater than 20%”.

Q: How did the “cleavage of AFC-linked substrate (Vmax)” value [2] turn out when COC(=O)CCC(=O)N[C@@H](Cc1ccccc1)C(=O)N[C@@H](CC(C)C)C(=O)N[C@@H](Cc1ccccc1)C(=O)Nc1ccc2c(C(F)(F)F)cc(=O)oc2c1 [MeoSuc-FLF-AFC, reference compound] (MeOSuc-Phe-Leu-Phe-{AFC}) was run?
A: The value was “not cleaved”.
